Reference: patent US20240285594A1, “COMPOSITIONS AND METHODS FOR TREATING PAIN IN ANIMALS” (North Carolina State University, priority 2023, published 2024)
“And” between values parts separate entries of the source, which are not always exact repeats. Identical values can stand only once. “Also recorded” adds a separate entry of the source. Like-named read-outs stand apart in the source and are kept apart here.

How the values were obtained:
cortisol = assay: Serum cortisol after surgical or sham castration of piglets (Part I, physiological assessment); assay type: in vivo
Method: A total of 197 Large White×Duroc cross male piglets from 35 litters were enrolled in the study (Table 1). Piglets were individually identified using ear tags (Allflex Global Piglet ear tags, Allflex Livestock Intelligence, Madison, WI), weighed and randomly allocated to one of eight treatment groups (FIG. 1).
Lidocaine was buffered by mixing 2 ml of 8.4% Sodium Bicarbonate to 20 ml of 2% lidocaine HCl injectable solution to achieve a pH of 6.8 (Lidocaine Hydrochloride, Covetrus, Dublin, Ohio, US). […] Piglets were held by both rear legs by one caretaker with the abdomen facing the individual administrating treatment. Buffered lidocaine was injected intra-inguinally (Picture 1) by a second caretaker using a ½ inch needle (Ideal® D3 20 Gauge, Neogen, Lansing, MI) inserted into a syringe (Prima Tech® 2 cc Bottle Mount Vaccinator, Prima Tech USA, Kenansville, NC). A total of 1.5 ml of buffered lidocaine per injection site was administered intramuscularly (IM) into each inguinal canal (left and right) at a 40-degree angle 5-7 cm from the scrotum and 2-3 cm from the abdominal wall. Piglets enrolled in the control treatment (C, S, CF, SF−T1: (C) Castration plus physiological saline (IM and IN; n=25); T2: (S) Sham plus physiological saline (IM and IN; n=25); T5: (CF) Castration plus flunixin (IN; n=25); T6: (SF) Sham plus flunixin (IN; n=24)) were handled in an identical manner and 1.5 ml of sterile saline was injected in the same two locations as described previously.
Immediately following intra-inguinal injection, piglets enrolled in the FM treatment groups were held in sternal recumbency by one individual and 2.2 mg/kg (Banamine®, Merck Animal Health, Madison, NJ, US) was administered in one nostril using was a MAD® nasal intranasal mucosal atomization device (Telefex Incorporated, Wayne, PA, US) attached to a Prima Tech® 0.5 cc bottle mount vaccinator. The same individual administered the treatment by gently holding the piglet's snout using their non-dominant hand to steady the head and administered the drug with the other hand. Piglets in the control group were handled in the same manner in an equivalent volume of 0.2 ml of sterile saline was administered as described above.
Castration was performed by one trained caretaker from the farm. Piglets were picked up, individually held by both hind legs with head down, and two vertical incisions were made through the skin of the scrotum over each testicle using a scalpel blade. Once the incisions were made, testicles were exposed, spermatic cords cut, and testicles were completely removed by traction. A sham castration was performed to mimic similar handling conditions in which piglets were picked up, held in the same manner, and had pressure applied to the scrotal area by the same individual responsible for castration.
Blood was collected 24 h prior to (−24 h), 1 h (1 h), and 24 h post castration (24 h, FIG. 2). Blood samples were collected using the technique described in other studies. The orbital sinus cavity was punctured using an Excel® disposable hypodermic needle 20G (Exel International, Quebec, Canada) and deposited into a 4 ml BD® red vacutainer serum tube (Med Vet International, Mettawa, IL). All tubes were maintained in a cooler and centrifuged (2,000×g for 15 min at 4° C.) no more than eight hours post-collection to separate serum. […]
Serum cortisol concentrations were quantified using a commercially available EIA kit (Arbor Assays DetectX Cortisol EIA Kit, Product #K003). […]

[1] = Observations and limited gross necropsy of the nasal cavity after IN or IM flunixin; assay type: in vivo, grower pigs
Method: Six female Yorkshire cross grower pigs approximately 8 weeks of age with no history of flunixin administration in a 30-day period were sourced from a production farm and enrolled in the study. The pigs were determined to be healthy by veterinary physical examination and pigs initially weighed between 18.0-22.0 kg. The pigs were individually housed in climate-controlled rooms with a 12:12 light dark cycle at the North Carolina State University College of Veterinary Medicine to prevent cross contamination between pigs and damage to jugular catheters. The pens had non-slip flooring, allowed the pigs to move freely, provided enrichment, and were cleaned at least twice daily. The pigs had ad libitum access to water via a nipple drinker and were fed 0.5 quarts of Nature's Match twice daily. The pigs acclimated for 1-2 days before they were anesthetized for jugular catheter placement as described in the pilot study above and were provided approximately 24 hours to recover from anesthesia before the study began. From the time of arrival until the end of the study, the pigs were monitored at least twice daily for general appearance, attitude, appetite, and wellbeing.

prostaglandin E2 (PGE2) = assay: Serum PGE2 after castration of piglets (Example 3); assay type: in vivo
Method: Pairwise comparisons of treatments at −24 h: P≥0.77. […] Pairwise comparisons of treatments at 24 h post-castration: P≥0.11.
The objective of this study was to evaluate the effects of intranasal flunixin and intra-inguinal lidocaine application on the castration associated inflammatory response in piglets, as described in Example 1.

[2] = female, Yorkshire cross, pig, in vivo, 2.2 mg/kg
Method: (§1) Six female Yorkshire cross grower pigs approximately 8 weeks of age with no history of flunixin administration in a 30-day period were sourced from a production farm and enrolled in the study. The pigs were determined to be healthy by veterinary physical examination and pigs initially weighed between 18.0-22.0 kg. The pigs were individually housed in climate-controlled rooms with a 12:12 light dark cycle at the North Carolina State University College of Veterinary Medicine to prevent cross contamination between pigs and damage to jugular catheters. The pens had non-slip flooring, allowed the pigs to move freely, provided enrichment, and were cleaned at least twice daily. The pigs had ad libitum access to water via a nipple drinker and were fed 0.5 quarts of Nature's Match twice daily. […] From the time of arrival until the end of the study, the pigs were monitored at least twice daily for general appearance, attitude, appetite, and wellbeing.
(§2) To facilitate jugular catheter placement, the pigs were sedated with Telazol®, reconstituted with ketamine and xylazine as previously described, intubated, and maintained on gas isoflurane anesthesia. A 22-gauge, 10 cm intravenous catheter (MILA, International, Inc., Florence, KY, USA) was placed into the jugular vein using sterile technique. It was sutured in place with 3-0 nylon and covered in Ioban™ (3M, St. Paul, MN, USA) to prevent damage. The pigs wore custom jackets throughout the study to protect the catheters and an extension set was attached to allow for easy catheter access and restraint-free blood collection.
(§3) All pigs were randomized to determine the first administration route. Group 1 (n=3 pigs) and Group 2 (n=3 pigs) were used in a cross-over design and received 2.2 mg/kg flunixin (Banamine®-S, Merck Animal Health, Madison, NJ, USA) by either the IM or IN route. Following a 5-day washout period, the pigs were administered 2.2 mg/kg flunixin via the opposite route. IN administration was completed using a MAD600 MADgic laryngo-tracheal mucosal atomization device (Teleflex Medical, Morrisville, NC, USA). The luer lock syringe was attached to this device and drug was placed into the nostril. Before administration, 0.22 mL of the drug was added to the device to account for dead space volume. After the IN dose, pigs were encouraged to keep their heads raised for approximately 10 seconds to prevent leakage of the drug out of the nasal cavity. Intramuscular administration was performed in the omotransversarius muscle using a 20G needle.
(§4) Blood samples were collected at 0 (pre-treatment), 0.16, 0.33, 0.5, 0.75, 1, 1.5, 2, 3, 4, 6, 8, 12, 18, 24, 36, 48, and 60 hours post treatment. To avoid heparin contamination in samples, at least 1 mL of blood was collected as a purge sample before 1-2 mL of blood was collected and placed into lithium heparin tubes (BD Vacutainer, Franklin Lakes, NJ, USA). The purge blood was injected back into the catheter before the catheter was flushed with 3-4 mL of heparinized saline to prevent coagulation. The blood tubes were placed on ice for no more than 1 hour before they were processed. Plasma was separated by centrifugation at 3500×g for 10 minutes at 4° C., equally split between two cryovials, mixed, and stored at −80° C. until analysis.
(§5) To prepare samples, 100 μL of plasma was pipetted into a clean borosilicate glass tube (disposable culture tubes, CWR). To pretreat the plasma, 500 μL of 4% phosphoric acid prepared in water was added to each tube. Solid phase extraction was performed on an oasis prime HLB 96 well μElution plate (Waters Corporation, Milford, MA, USA). The plate was prepared by conditioning the plate with 500 μL of methanol followed by 500 μL of ultrapure water.

[3] = cited from earlier work
[4] = cited from earlier work; for mitigation of pain associated with castration (and tail docking): earlier published studies in pigs, route as in the sentence
[5] = IM flunixin in pigs; cited from earlier work
[6] = IM flunixin 2.2 mg/kg compared to ketoprofen 3 mg/kg and meloxicam 0.4 mg/kg; swine; cited from earlier work
in vivo = conditions: female, Yorkshire cross, pig, plasma, 2.2 mg/kg
Method: as §1, §2, §3, §4, §5

[7] = Cross-over plasma pharmacokinetics of intranasal versus intramuscular flunixin;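 further: grower pigs about 8 weeks old weighing 18.0-22.0 kg, randomized cross-over of both routes separated by a 5-day washout, blood taken via jugular vein catheter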
Method: as §1, §2, §3, §4, §5

[8] = IV administration 2.2 mg/kg, piglets, Kittrell et al. (2020)
[9] = PO administration 3.3 mg/kg, piglets, Kittrell et al. (2020)
[10] = TD administration 3.3 mg/kg, piglets, Kittrell et al. (2020)
[11] = intramuscular 2.2 mg/kg, six grower pigs, plasma, median
[12] = intranasal 2.2 mg/kg, six grower pigs, plasma, median

Cc1c(Nc2ncccc2C(=O)O)cccc1C(F)(F)F [flunixin meglumine]
cortisol concentrations (cortisol; 1 h, sham castrated piglets (SF and SLF)): lowest cortisol concentrations
cortisol concentrations (cortisol; 1 h post-castration, castrated piglets, compared to C (saline) and CL, FM 2.2 mg/kg intranasal, buffered lidocaine intra-inguinal, listed as FM): lower cortisol concentrations; also recorded: decreased cortisol concentrations; also recorded: effectively reduce
cortisol concentrations (cortisol; 24 h post-castration, between treatments): not effective
adverse effects on the pigs ([1]; following IN or IM administration, 2.2 mg/kg): No major adverse effects
limited gross necropsy of the nasal cavity ([1]; following euthanasia, after IN administration): no negative effects
serum PGE2 concentrations (prostaglandin E2 (PGE2); 1 h post-castration, castrated and non-castrated piglets, flunixin 2.2 mg/kg IN vs piglets without the drug): lower serum PGE2 concentrations; also recorded: effective
serum PGE2 concentrations (prostaglandin E2 (PGE2); 24 h post castration, vs other treatments): no observed differences; also recorded: not effective
time flunixin was detectable in plasma post-administration [2]: up to 60 hours
half-life [3, 8]: 7.06 h
maximum observed drug concentration [3, 8]: 12.03 µg/mL
Cmax [3, 9]: 4990 ng/mL
Tmax [3, 9]: 55.8 min
half-life [3, 9]: 11.38 h
Cmax [3, 10]: 40 ng/mL
Tmax [3, 10]: 1350 min
half-life [3, 10]: 38.89 h
bioavailability ([3]; transdermal formulation, pigs): low bioavailability
blood concentrations ([3]; transdermal formulation, swine, Kittrell et al. (2020)): low blood concentrations
numerical decrease of cortisol concentrations ([4]; FM topically 24 h prior to castration vs saline-treated piglets, not significant): more than 30%
mitigation of pain associated with castration (and tail docking) [4]: effective
mitigation of pain associated with castration (and tail docking) ([4]; listed as flunixin): more effective; also recorded: superior
total pain scores ([4]; immediately post castration, transdermal flunixin treated piglets, castrated piglets 4.9, video observation): 3.1
cortisol concentrations ([4]; intramuscular FM, 2 h post-castration, vs castrated non-treated control, Nixon 2021): decreased cortisol concentrations
rescue analgesia intervention ([4]; transdermal FM 24 h before castration, control pigs 54%): 29%
label withdrawal time [5]: 12 days
bioavailability [6]: higher bioavailability
terminal half-life [6]: longer terminal half-life
AUC(0-inf) (in vivo; im): 6900 ng·h/mL
AUC(0-t) (in vivo; im): 6900 ng·h/mL
CL/F (in vivo; im): 5 mL/min/kg
Cmax (in vivo; im): 4000 ng/mL
Tmax (in vivo; im): 12 min
Vd/F (in vivo; im): 3.2 L/kg
AUC(0-t) (in vivo; inhaled or intranasal): 4800 ng·h/mL
CL/F (in vivo; inhaled or intranasal): 8.33 mL/min/kg
Cmax (in vivo; inhaled or intranasal): 2700 ng/mL
Tmax (in vivo; inhaled or intranasal): 12 min
Vd/F (in vivo; inhaled or intranasal): 5.4 L/kg
bioavailability (in vivo; other: intranasal): 88.5%
AUCinf of IM administration ([7]; 2.2 mg/kg IM, individual grower pig (Pig # 1-6, one line per pig), unit not given): 7.63 and 6.25 and 7.82 and 8.54 and 5.29 and 4.99
AUCinf of IN administration ([7]; 2.2 mg/kg IN, individual grower pig (Pig # 1-6, one line per pig), unit not given): 2.98 and 8.90 and 7.07 and 4.98 and 4.74
AUC Extrap [7, 11]: 0.3%
λz [7, 11]: 0.1 h⁻¹
AUC Extrap [7, 12]: 0.5%
AUCinf [7, 12]: 4900 ng·h/mL
HLλz [7, 12]: 7.4 h
λz [7, 12]: 0.09 h⁻¹
